Measured values published in patent publication US11492361B2, “Compounds useful in HIV therapy” (GlaxoSmithKline Intellectual Property Development Limited, priority 2018, dated 2022).
Structures can show the parent of a compound that is named as a salt.

System: Jurkat HIV-luciferase clones
Test: Jurkat latency reversal assay
Type: cell-based
Conditions: Homo sapiens, Jurkat, 48 h
Description: Jurkat HIV-luciferase clones were maintained in RPMI medium 1640 (Gibco by Life Technologies) containing 10% (vol/vol) fetal bovine serum (SAFC/Sigma-Aldrich) and 25 units/mL penicillin, 25 units/mL streptomycin (Gibco by Life Technologies), and were split 1:4 every 3 to 4 days to maintain a cell density of ˜0.3 to 1 million cells/mL. The Jurkat clones were maintained with the addition of 500 nM EFV in the medium. Three Jurkat cell clones (C16, I15, and N6), each harboring one or two integrated HIV proviruses expressing the luciferase reporter gene, were added at equal amounts for a total of 5,000 cells per well to 384-well plates containing compound titrations. Dose-response testing was performed on compounds dissolved in dimethyl sulfoxide (DMSO, Fisher Scientific, Merelbeke, Belgium) dispensed in duplicate serial 3-fold, 14-point titrations using a D300e Digital Droplet Dispenser (Hewlett-Packard) to give final assay concentrations of 10 μM to 2.1 pM in 50 μL of medium at 0.5% DMSO (vol/vol) final concentration. Cells and compound were incubated at 37° C. for 48 hours, unless otherwise indicated, followed by the addition of 20 μL of Steady-Glo® Luciferase (Promega). Luminescence resulting from the induction of the virally expressed luciferase was measured using an EnVision 2102 Multilabel Plate Reader (Perkin Elmer). Dose-response relationships were analyzed with GraphPad PRISM 6 using a four-parameter logistic regression model to calculate the concentration of compound that gives half-maximal response (EC50) and the maximal percent activation compared to the vehicle control.

Row | SMILES | EC50 [nM]
1 | CN[C@@H](C)C(=S)N[C@H]1CCS[C@H]2CC(C)(C)[C@@H](C(=O)N[C@H](COCCCCOC[C@@H](NC(=O)[C@H]3N4C(=O)[C@@H](NC(=S)[C@H](C)NC)CCS[C@H]4CC3(C)C)c3ccccc3)c3ccccc3)N2C1=O [compound 37, (4S,4′S,7S,7′S,9aS,9a′S)-N,N′-((1S,1′S)-(butane-1,4-diylbis(oxy))bis(1-phenylethane-2,1-diyl))bis(8,8-dimethyl-4-((S)-2-(methylamino)propanethioamido)-5-oxooctahydropyrrolo[2,1-b][1,3]thiazepine-7-carboxamide) dihydrochloride] | 10.9
2 | CN[C@@H](C)C(=O)N[C@H]1CCS[C@H]2CC(C)(C)[C@@H](C(=O)N[C@H](COCCCCCCCCOC[C@@H](NC(=O)[C@H]3N4C(=O)[C@@H](NC(=O)[C@H](C)NC)CCS[C@H]4CC3(C)C)c3ccccc3)c3ccccc3)N2C1=O [compound 58, (4S,4′S,7S,7′S,9aS,9a′S)-N,N′-((1S,1′S)-(octane-1,8-diylbis(oxy))bis(1-phenylethane-2,1-diyl))bis(8,8-dimethyl-4-((S)-2-(methylamino)propanamido)-5-oxooctahydropyrrolo[2,1-b][1,3]thiazepine-7-carboxamide) dihydrochloride] | 4.5
3 | CN[C@@H](C)C(=O)N[C@H]1CCS[C@H]2CC(C)(C)[C@@H](C(=O)N[C@H](COCCCCCCCCCCOC[C@@H](NC(=O)[C@H]3N4C(=O)[C@@H](NC(=O)[C@H](C)NC)CCS[C@H]4CC3(C)C)c3ccccc3)c3ccccc3)N2C1=O [compound 60, (4S,4′S,7S,7′S,9aS,9a′S)-N,N′-((1S,1′S)-(decane-1,10-diylbis(oxy))bis(1-phenylethane-2,1-diyl))bis(8,8-dimethyl-4-((S)-2-(methylamino)propanamido)-5-oxooctahydropyrrolo[2,1-b][1,3]thiazepine-7-carboxamide) dihydrochloride] | 3.5
4 | CN[C@@H](C)C(=S)N[C@H]1CCS[C@H]2CC(C)(C)[C@@H](C(=O)N[C@H](COCCOCCOC[C@@H](NC(=O)[C@H]3N4C(=O)[C@@H](NC(=S)[C@H](C)NC)CCS[C@H]4CC3(C)C)c3ccccc3)c3ccccc3)N2C1=O [compound 39, (4S,4′S,7S,7′S,9aS,9a′S)-N,N′-((1S,1′S)-((oxybis(ethane-2,1-diyl))bis(oxy))bis(1-phenylethane-2,1-diyl))bis(8,8-dimethyl-4-((S)-2-(methylamino)propanethioamido)-5-oxooctahydropyrrolo[2,1-b][1,3]thiazepine-7-carboxamide) dihydrochloride] | 51.8
5 | CN[C@@H](C)C(=S)N[C@H]1CCS[C@H]2CC(C)(C)[C@@H](C(=O)N[C@H]3c4ccccc4C[C@H]3C(=O)N3CCN(C(=O)[C@@H]4Cc5ccccc5[C@@H]4NC(=O)[C@H]4N5C(=O)[C@@H](NC(=S)[C@H](C)NC)CCS[C@H]5CC4(C)C)CC3)N2C1=O [compound 47, (4S,7S,9aS)-N-[(1R,2R)-2-{4-[(1R,2R)-1-[(4S,7S,9aS)-8,8-dimethyl-4-[(2S)-2-(methylamino)propanethioamido]-5-oxo-octahydropyrrolo[2,1-b][1,3]thiazepine-7-amido]-2,3-dihydro-1H-indene-2-carbonyl]piperazine-1-carbonyl}-2,3-dihydro-1H-inden-1-yl]-8,8-dimethyl-4-[(2S)-2-(methylamino)propanethioamido]-5-oxo-octahydropyrrolo[2,1-b][1,3]thiazepine-7-carboxamide] | 1.2
